Entries after “also recorded” stand apart in the source; their conditions may differ.
System: gastro-intestinal transit (gastric emptying) in the mouse
Test: Gastric emptying (stomach content weight) after charcoal suspension in fasted mice, subcutaneous administration
Type: in vivo
Conditions: male Swiss mice, subcutaneous injection of a composition comprising pramlintide alone, versus vehicle
Description: The aim of this study was to evaluate the effects of pramlintide (compositions C7-1 and C7-2) and co-administration of pramlintide (compositions C7-1 and C7-2) and exenatide (C7-3 and C7-4) on gastro-intestinal transit (gastric emptying) in the mouse.
Co-administration means that the composition of pramlintide and the composition of exenatide were administered separately.
Studies were conducted on naive male Swiss mice (Janvier Lab) as no gender specific effect were expected. Body weight range of 25-32 g were included in the analysis.
Mice were approximately fasted for 18 hours (~T0-18 h). The gastric emptying (i.e. stomach content) was measured via the administration of a suspension of charcoal at T0 (activated charcoal (0.4 ml/mouse, […]; Sigma Reference number C9157), suspended 10% with 2.5% arabic gum in distilled water). […] Afterwards, the stomach was opened, the contents washed out and the weight recorded again (empty stomach weight).
The results are expressed as the variation of gastric content with the administration compositions comprising pramlintide compared with the gastric content with administration the vehicle (weight of gastric content with pramlintide / weight of gastric content with vehicle). […]

Lys-Cys-Asn-Thr-Ala-Thr-Cys-Ala-Thr-Gln-Arg-Leu-Ala-Asn-Phe-Leu-Val-His-Ser-Ser-Asn-Asn-Phe-Gly-Pro-lle-Leu-Pro-Pro-Thr-Asn-Val-Gly-Ser- Asn-Thr-Tyr [pramlintide]
stomach (gastric) content weight, i.e. gastric emptying, result in words: increases the stomach content weight; also recorded: increases the gastric content weight
